Reference: US10501479B2, “Benzenesulfonyl-asymmetric ureas and medical uses thereof” (HELSINN HEALTHCARE SA, priority 2016, dated 2019)
pEC50, pIC50: −log10 of the molar value. Where a name gives a salt, the structure may show the parent alone. Read-outs that look alike come from different tables or passages of the source.

What was measured:
Type in all cases: cell-based
[1] = biological target: T1, GHSR-1a (HEK293/GHSR1a cell line) (Homo sapiens, UniProt Q92847); assay: Ghrelin agonist potency (EC50) with calcium FLIPR assay; conditions: HEK293/GHSR1a, read-out: Activity EC50/EMax: EC50 (ghrelin agonist potency)
T1 construct: expressed in transfected cells; host or cells: HEK293/GHSR1a cell line
Protocol: Evaluation of Ghrelin Agonist (EC50) and Antagonist Potency (IC50) with Calcium FLIPR Assay:
The intracellular calcium assay was carried out in a 384-well format FLIPR™ (Molecular Device) HEK293/GHSR1a cell line. Cells were seeded 24 hr prior to the experiments at an optimal density per well. Preincubation with selected calcium dye lasted for 30-60 min at room temperature or 37° C. Test compounds, dissolved in DMSO, were added at the appropriate time and incubated for 15 min followed by the addition of ghrelin with FlexStation or FLIPR. Relative fluorescence was monitored by the FLIPR™ Molecular Device. EC50 and IC50 values were estimated from dose-response data using GraphPad Prism software. To check for GHSR-1a agonism, the compound was added at t=20 sec. and the calcium response was followed for 2 minutes. To check for GHSR-1a antagonism, the compound and Ghrelin (10 nM) were added to the cells at t=20 sec. and the calcium response was measured for 2 minutes. The potency of the antagonist was calculated by its ability to reduce the ghrelin response. Dose-response curves were made for relevant antagonists.

[2] = biological target: T1, GHSR-1a (HEK293/GHSR1a cell line); assay: Ghrelin antagonist potency (IC50) with calcium FLIPR assay, ghrelin 10 nM
Procedure, shortened: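 The cells were plated a day ahead and loaded with a calcium-sensitive dye. Test compound was then added and incubated 15 min, followed by ghrelin. Antagonist potency was calculated from inhibition of the response to 10 nM ghrelin, and agonist potency from the calcium rise caused by compound alone.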

[3] = biological target: T2, recombinant human ghrelin receptor (HEK293/GRLN) (Homo sapiens, UniProt Q92847); assay: Ghrelin inverse agonist potency (EC50) with IP-1 (IP-One HTRF) assay; conditions: IP-1 assay
T2 construct: expressed in transfected cells
Protocol: Evaluation of Ghrelin Inverse Agonist Potency (EC50) with IP-1 Assay:
HEK293 cells stably expressing recombinant human ghrelin receptor (HEK293/GRLN) were used in the IP-One HTRF assay. One day before the test, cells were seeded at a density of 1.5×10^4/well in a Matrigel® coated 384-well plate with 30 μL of complete Dulbecco's Modified Eagle's Medium and incubated at 37° C. in 5% CO2 for 18-22 hours. On the test day, the medium was removed by centrifugation at 600 rpm for 30 seconds, and 20 μL of stimulation buffer containing 1x tested compound was added with Bravo (Agilent technologies). The plate was then incubated at 37° C. 5% CO2 for 1 hour. After the incubation, 5 μL of IP1-d2 and 5 μL of Tb-Cryp were added to all wells using multidrop Combi(Thermo). After additional incubation at room temperature for 1 hour, the plates were read on Envision with 620 and 665 (Perkin Elmer).

[4] = HEK293/GHSR1a, ghrelin 10 nM, read-out: Activity IC50 (ghrelin antagonist potency)
[5] = ghrelin antagonist potency, read-out: IC50 (Activity)
[6] = inverse agonist potency, read-out: EC50 (Activity)
[7] = ghrelin antagonist potency, read-out: Activity IC50
[8] = ghrelin inverse agonist potency, read-out: Activity EC50

T2 sequence (Q92847 whole entry): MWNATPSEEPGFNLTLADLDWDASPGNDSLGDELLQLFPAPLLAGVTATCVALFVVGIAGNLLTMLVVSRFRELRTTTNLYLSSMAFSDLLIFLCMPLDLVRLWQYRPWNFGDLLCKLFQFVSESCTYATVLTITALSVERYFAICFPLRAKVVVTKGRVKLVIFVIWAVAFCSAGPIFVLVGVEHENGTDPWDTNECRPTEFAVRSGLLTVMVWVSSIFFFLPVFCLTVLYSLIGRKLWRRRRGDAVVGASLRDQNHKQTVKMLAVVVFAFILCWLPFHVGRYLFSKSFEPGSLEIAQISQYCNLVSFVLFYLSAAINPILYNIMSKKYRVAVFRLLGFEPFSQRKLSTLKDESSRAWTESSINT
T1 sequence (Q92847 whole entry): as above

SMILES	pIC50 [2, 5]	pEC50 [3, 6]	other results
COc1cc(N2C[C@@H](C)N[C@@H](C)C2)ccc1NS(=O)(=O)c1ccc(NC(=O)N[C@H](C)c2cccc(Cl)c2Cl)cc1 [H1362, 4-(3-((R)-1-(2,3-dichlorophenyl)ethyl)ureido)-N-(4-((cis)-3,5-dimethylpiperazin-1-yl)-2-methoxyphenyl) benzenesulfonamide]			pEC50 [1]: < 4.52; pIC50 [2, 4]: 5.81
C[C@H](NC(=O)Nc1ccc(S(=O)(=O)Cc2ccc(CN3CCC(O)C3)cc2)cc1)c1ccccc1 (stereo partly drawn) [H1313, 1-(4-((4-((3-hydroxypyrrolidin-1-yl)methyl)benzyl)sulfonyl)phenyl)-3-((S)-1-phenylethyl)urea]			pEC50 [1]: < 4.52; pIC50 [2, 4]: 5.84
CC(NC(=O)Nc1ccc(S(=O)(=O)Cc2ccc3c(c2)CNC3=O)cc1)c1ccccc1 (centres unmarked) [H1292, 1-(4-(((1-oxoisoindolin-5-yl)methyl)sulfonyl)phenyl)-3-(1-phenylethyl)urea]			pEC50 [1]: < 4.52; pIC50 [2, 4]: < 4.52
CC(NC(=O)Nc1ccc(S(=O)(=O)Cc2ccc3c(c2)C(N2CCCC2)CC3)cc1)c1ccccc1 (centres unmarked) [H1294, 1-(1-phenylethyl)-3-(4-(((3-(pyrrolidin-1-yl)-2,3-dihydro-1H-inden-5-yl)methyl)sulfonyl)phenyl)urea]			pEC50 [1]: 4.89; pIC50 [2, 4]: 5.48
CC1Cc2cc(CS(=O)(=O)c3ccc(NC(=O)N(C)C(C)c4cccc(Cl)c4Cl)c(F)c3)ccc2CN1 (centres unmarked) [H1402, 1-(1-(2,3-dichlorophenyl)ethyl)-3-(2-fluoro-4-(((3-methyl-1,2,3,4-tetrahydroisoquinolin-6-yl)methyl)sulfonyl)phenyl)-1-methylurea]			pEC50 [1]: < 4.52; pIC50 [2, 4]: 7.12
CCN(CC)c1ccc(CS(=O)(=O)c2ccc(NC(=O)NC(C)c3cccc(Cl)c3Cl)cc2)cc1 (centres unmarked) [H1360, 1-(1-(2,3-dichlorophenyl)ethyl)-3-(4-((4-(diethylamino)benzyl)sulfonyl)phenyl)urea]			pEC50 [1]: < 4.52; pIC50 [2, 4]: < 4.52
C[C@H](NC(=O)Nc1ccc(S(=O)(=O)Cc2ccc3c(c2)C2CCC3N2)cc1)c1ccccc1 (stereo partly drawn) [H1324, 1-((S)-1-phenylethyl)-3-(4-(((1,2,3,4-tetrahydro-1,4-epiminonaphthalen-6-yl)methyl)sulfonyl)phenyl)urea]			pEC50 [1]: < 4.52; pIC50 [2, 4]: 4.98
CC1Cc2cc(CS(=O)(=O)c3ccc(NC(=O)N[C@@H](C)c4cccc(Cl)c4Cl)cc3)ccc2CN1 (stereo partly drawn) [H1403, 1-((S)-1-(2,3-dichlorophenyl)ethyl)-3-(4-(((3-methyl-1,2,3,4-tetrahydroisoquinolin-6-yl)methyl)sulfonyl)phenyl)urea]			pEC50 [1]: < 4.52; pIC50 [2, 4]: 8.82
C[C@H](NC(=O)Nc1ccc(S(=O)(=O)Nc2ccc3[nH]ncc3c2)cc1)c1cccc(Cl)c1Cl [H1106, (S)-4-(3-(1-(2,3-dichlorophenyl)ethyl)ureido)-N-(1H-indazol-5-yl) benzenesulfonamide]	5.85	6.06	
CC(c1ccc2c(c1)CCNC2)S(=O)(=O)c1ccc(NC(=O)N[C@@H](C)c2cccc(Cl)c2Cl)cc1 (stereo partly drawn) [H1103, 1-((S)-1-(2,3-dichlorophenyl)ethyl)-3-(4-((1-(1,2,3,4-tetrahydroisoquinolin-6-yl)ethyl)sulfonyl)phenyl)urea hydrochloride]	6.31	7.18	
COc1ccc(C(C)NC(=O)Nc2ccc(S(=O)(=O)Cc3ccc4c(c3)CNC4)cc2)cc1Cl (centres unmarked) [H1477, 1-(1-(3-chloro-4-methoxyphenyl)ethyl)-3-(4-((isoindolin-5-ylmethyl)sulfonyl)phenyl)urea]			pIC50 [2, 7]: 7.43; pEC50 [3, 8]: 7.76
CC(NC(=O)Nc1ccc(S(=O)(=O)Cc2ccc3c(c2)CCNC3)cc1)c1cccc(Cl)c1 (centres unmarked) [H1042, 1-(1-(3-chlorophenyl)ethyl)-3-(4-(((1,2,3,4-tetrahydroisoquinolin-6-yl)methyl)sulfonyl)phenyl)urea]	7.44	6.91	
O=C(Nc1ccccc1)Nc1ccc(S(=O)(=O)Cc2ccc3c(c2)CNC3)cc1 [H1190, 1-(4-((isoindolin-5-ylmethyl)sulfonyl)phenyl)-3-phenylurea]	6.58	6.50	
C[C@H](NC(=O)Nc1ccc(S(=O)(=O)Cc2ccc3c(c2)CCN3)cc1)c1cccc(Cl)c1Cl [H1047, (S)-1-(1-(2,3-dichlorophenyl)ethyl)-3-(4-((indolin-5-ylmethyl)sulfonyl)phenyl)urea]	6.06	5.93	
CC(c1ccccc1)N(O)C(=O)Nc1ccc(S(=O)(=O)Cc2ccc3c(c2)CNC3)cc1 (centres unmarked) [H1526, 1-hydroxy-3-(4-((isoindolin-5-ylmethyl)sulfonyl)phenyl)-1-(1-phenylethyl)urea]			pIC50 [2, 7]: 7.50; pEC50 [3, 8]: 7.66
CC(C)CNC(=O)Nc1ccc(S(=O)(=O)Cc2ccc3c(c2)CN(C)C3)cc1 [H1236, 1-isobutyl-3-(4-(((2-methylisoindolin-5-yl)methyl)sulfonyl)phenyl)urea]	5.78	6.30	
CC(C)C(C)NC(=O)Nc1ccc(S(=O)(=O)Cc2ccc3c(c2)CN(C)C3)cc1 (centres unmarked) [H1229, 1-(3-methylbutan-2-yl)-3-(4-(((2-methylisoindolin-5-yl)methyl)sulfonyl)phenyl)urea]	6.54	6.43	
C[C@H](NC(=O)Nc1ccc(S(=O)(=O)Cc2ccc(COS(=O)(=O)O)cc2)cc1)c1cccc(Cl)c1Cl [H1181, (S)-4-(((4-(3-(1-(2,3-dichlorophenyl)ethyl)ureido)phenyl)sulfonyl)methyl) benzyl hydrogen sulfate]	5.48	6.02	
C[C@H](NC(=O)Nc1ccc(S(=O)(=O)Nc2ccc(N)nn2)cc1)c1cccc(Cl)c1Cl [H1129, (S)-N-(6-aminopyridazin-3-yl)-4-(3-(1-(2,3-dichlorophenyl)ethyl)ureido) benzenesulfonamide]	5.48	5.61	
CC(NC(=O)Nc1ccc(S(=O)(=O)C(C)c2ccc3c(c2)CN(Cc2ccccc2)C3)cc1)c1ccccc1 (centres unmarked) [H1233, 1-(4-((1-(2-benzylisoindolin-5-yl)ethyl)sulfonyl)phenyl)-3-(1-phenylethyl)urea]	6.65	6.77	
O=C(NC(=O)c1cc(N2CCOCC2)ccc1Cl)Nc1ccc(S(=O)(=O)Cc2ccc3c(c2)CNC3)cc1 [H1249, 2-chloro-N-((4-((isoindolin-5-ylmethyl)sulfonyl)phenyl)carbamoyl)-5-morpholinobenzamide]	5.48	5.79	
O=C(NCc1cccc(Cl)c1)Nc1ccc(S(=O)(=O)Cc2ccc3c(c2)CCNC3)cc1 [H1038, 1-(3-chlorobenzyl)-3-(4-(((1,2,3,4-tetrahydroisoquinolin-6-yl)methyl)sulfonyl)phenyl)urea]	6.42	6.91	
CCN1Cc2ccc(C(C)(C)S(=O)(=O)c3ccc(NC(=O)NC(C)c4ccccc4)cc3)cc2C1 (centres unmarked) [H1232, 1-(4-((2-(2-ethylisoindolin-5-yl)propan-2-yl)sulfonyl)phenyl)-3-(1-phenylethyl)urea]	< 4.52	6.51	
CN1Cc2ccc(CS(=O)(=O)c3ccc(NC(=O)NCC(C)(C)C)cc3)cc2C1 [H1228, 1-(4-(((2-methylisoindolin-5-yl)methyl)sulfonyl)phenyl)-3-neopentylurea]	6.12	5.90	
CC(NC(=O)Nc1ccc(S(=O)(=O)Nc2ccc3c(c2)CNC3)cc1)c1cccc2ccccc12 (centres unmarked) [H1155, N-(isoindolin-5-yl)-4-(3-(1-(naphthalen-1-yl)ethyl)ureido) benzenesulfonamide]	8.37	8.30	
CC(c1ccccc1)N(O)C(=O)Nc1ccc(S(=O)(=O)Cc2ccc3c(c2)CN(C)C3)cc1 (centres unmarked) [H1527, 1-hydroxy-3-(4-(((2-methylisoindolin-5-yl)methyl)sulfonyl)phenyl)-1-(1-phenylethyl)urea]			pIC50 [2, 7]: 6.89; pEC50 [3, 8]: 7.47
C[C@H](NC(=O)Nc1ccc(S(=O)(=O)Cc2ccc(O)cc2)cc1)c1cccc(Cl)c1Cl [H1099, (S)-1-(1-(2,3-dichlorophenyl)ethyl)-3-(4-((4-hydroxybenzyl)sulfonyl)phenyl)urea]	5.06	5.94	
C[C@H](NC(=O)Nc1ccc(S(=O)(=O)Nc2ccc3[nH]ccc3c2)cc1)c1cccc(Cl)c1Cl [H0991, (S)-4-(3-(1-(2,3-dichlorophenyl)ethyl)ureido)-N-(1H-indol-5-yl)benzenesulfonamide]	6.84	7.18	
